From ChEMBL document CHEMBL1201862, “PubChem BioAssay data set” (2004)
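These data come from cells grown in 96-well plates and exposed to compound for 48 hours at five concentrations. GI50 = concentration required for 50% inhibition of growth.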 Active and inactive are the calls of the source. Rule as the data show it: active = GI50 up to about 1.1 µM and inactive = higher.

Columns and labels:
Assay in all cases: NCI-60 cell line screen, 48 h
MDA-N = test system: MDA-N
HCT-116 = test system: HCT-116
SF-268 = test system: SF-268
SK-MEL-28 = test system: SK-MEL-28
SN12C = test system: SN12C
SW-620 = test system: SW-620
DU-145 = test system: DU-145
PC-3 = test system: PC-3
MOLT-4 = test system: MOLT-4
786-0 = test system: 786-0
RXF 393 = test system: RXF 393
MCF7 = test system: MCF7
SK-MEL-2 = test system: SK-MEL-2
MDA-MB-435 = test system: MDA-MB-435
IGROV-1 = test system: IGROV-1
M14 = test system: M14
NCI-H460 = test system: NCI-H460
LOX IMVI = test system: LOX IMVI
SR = test system: SR
HOP-92 = test system: HOP-92

Measured: GI50

O=C(c1cccs1)N(C(=S)OCc1ccccn1)c1ccccc1
inactive: MDA-N > 100 µM | HCT-116 63.5 µM | SF-268 > 100 µM | SK-MEL-28 > 100 µM | SN12C 50.7 µM | SW-620 92 µM | DU-145 69.2 µM | PC-3 47.8 µM | MOLT-4 45.7 µM | 786-0 > 100 µM | RXF 393 31 µM | MCF7 68.4 µM | SK-MEL-2 > 100 µM | MDA-MB-435 > 100 µM | IGROV-1 28.8 µM | M14 > 100 µM | NCI-H460 70.3 µM | LOX IMVI 96.4 µM | SR > 100 µM

Cc1nc(N)c(N2CCN([N+](=O)[O-])CC2)c(O)n1
inactive: MDA-N > 100 µM | HCT-116 > 100 µM | SF-268 > 100 µM | SK-MEL-28 > 100 µM | SN12C > 100 µM | SW-620 > 100 µM | DU-145 > 100 µM | PC-3 > 100 µM | MOLT-4 > 100 µM | 786-0 > 100 µM | MCF7 > 100 µM | SK-MEL-2 > 100 µM | MDA-MB-435 > 100 µM | M14 > 100 µM | NCI-H460 > 100 µM | LOX IMVI > 100 µM | SR > 100 µM

Clc1ccc(Cc2nc3cc(Cl)ccc3o2)cc1
inactive: MDA-N 36.1 µM | HCT-116 35.1 µM | SF-268 43 µM | SK-MEL-28 41.4 µM | SN12C 40.1 µM | SW-620 56.4 µM | DU-145 60.8 µM | PC-3 32.4 µM | MOLT-4 26.5 µM | 786-0 34.4 µM | MCF7 38.5 µM | SK-MEL-2 15.7 µM | MDA-MB-435 28.7 µM | IGROV-1 23.8 µM | M14 34.8 µM | NCI-H460 42.1 µM | LOX IMVI 14 µM | SR 30.7 µM | HOP-92 31.6 µM

O=C1c2cc([N+](=O)[O-])cnc2S(=O)(=O)N1c1ccc(Br)cc1
inactive: MDA-N > 100 µM | HCT-116 > 100 µM | SF-268 > 100 µM | SK-MEL-28 > 100 µM | SN12C > 100 µM | SW-620 > 100 µM | DU-145 > 100 µM | PC-3 > 100 µM | MOLT-4 > 100 µM | 786-0 > 100 µM | MCF7 > 100 µM | SK-MEL-2 > 100 µM | MDA-MB-435 > 100 µM | IGROV-1 > 100 µM | M14 > 100 µM | NCI-H460 > 100 µM | LOX IMVI > 100 µM | SR > 100 µM | HOP-92 > 100 µM

CC(C)CC(=O)CC(O)C(Cl)(Cl)Cl (stereo not given)
inactive: MDA-N > 100 µM | HCT-116 > 100 µM | SK-MEL-28 > 100 µM | SN12C > 100 µM | SW-620 > 100 µM | DU-145 > 100 µM | PC-3 > 100 µM | MOLT-4 > 100 µM | 786-0 > 100 µM | RXF 393 > 100 µM | MCF7 > 100 µM | SK-MEL-2 > 100 µM | MDA-MB-435 > 100 µM | IGROV-1 > 100 µM | M14 > 100 µM | LOX IMVI > 100 µM | SR > 100 µM

Cc1ccc(F)c2[nH]c(-c3ccccc3)cc(=O)c12
inactive: HCT-116 4.73 µM | SF-268 14.5 µM | SK-MEL-28 3.11 µM | SN12C 7.1 µM | SW-620 4.67 µM | DU-145 8.04 µM | PC-3 8.81 µM | MOLT-4 3.94 µM | 786-0 2.83 µM | RXF 393 3.58 µM | MCF7 1.18 µM | SK-MEL-2 6.93 µM | MDA-MB-435 1.18 µM | IGROV-1 5.3 µM | M14 3.37 µM | NCI-H460 5.32 µM | LOX IMVI 4.68 µM | SR 2.99 µM
active: MDA-N 0.897 µM

COc1ccc2c(N=[N+]=[N-])c(-c3ccccc3)c(=O)oc2c1
inactive: MDA-N 48.8 µM | HCT-116 44.3 µM | SF-268 78.5 µM | SK-MEL-28 > 100 µM | SN12C 61.1 µM | SW-620 > 100 µM | DU-145 65.6 µM | PC-3 52.7 µM | MOLT-4 21.5 µM | 786-0 > 100 µM | MCF7 36.2 µM | MDA-MB-435 45.8 µM | IGROV-1 > 100 µM | M14 57 µM | NCI-H460 49.3 µM | LOX IMVI 82.8 µM | SR 22.2 µM

O=C1c2ccccc2-c2ccc(/N=[N+](/[O-])c3ccc4c(c3)C(=O)c3ccccc3-4)cc21
inactive: MDA-N > 100 µM | HCT-116 > 100 µM | SF-268 > 100 µM | SK-MEL-28 > 100 µM | SN12C > 100 µM | SW-620 > 100 µM | DU-145 > 100 µM | PC-3 > 100 µM | MOLT-4 > 100 µM | 786-0 > 100 µM | RXF 393 > 100 µM | MCF7 > 100 µM | SK-MEL-2 > 100 µM | MDA-MB-435 > 100 µM | IGROV-1 > 100 µM | M14 > 100 µM | NCI-H460 > 100 µM | LOX IMVI > 100 µM | HOP-92 > 100 µM

O=[N+]([O-])c1ccc(N2N=C(c3ccc4ccccc4c3O)CC2c2ccc(Cl)cc2Cl)c([N+](=O)[O-])c1 (stereo not given)
inactive: MDA-N 40.9 µM | HCT-116 23.6 µM | SF-268 53.1 µM | SK-MEL-28 65.8 µM | SN12C 71 µM | SW-620 37.5 µM | DU-145 55.5 µM | PC-3 35.1 µM | MOLT-4 14.9 µM | 786-0 28.2 µM | RXF 393 25.4 µM | MCF7 40.9 µM | SK-MEL-2 30.3 µM | MDA-MB-435 29.5 µM | IGROV-1 23.3 µM | M14 > 10 µM | NCI-H460 51.1 µM | LOX IMVI 41.5 µM

O=C(CN1CCOCC1)c1ccc2c(c1)oc(=O)n2CCN1CCCCC1
inactive: MDA-N > 100 µM | HCT-116 > 100 µM | SF-268 48.3 µM | SK-MEL-28 > 100 µM | SN12C > 100 µM | SW-620 > 100 µM | DU-145 > 100 µM | PC-3 > 100 µM | MOLT-4 > 100 µM | 786-0 > 100 µM | RXF 393 > 100 µM | MCF7 > 100 µM | SK-MEL-2 > 100 µM | MDA-MB-435 > 100 µM | IGROV-1 > 100 µM | M14 > 100 µM | NCI-H460 > 100 µM | LOX IMVI > 100 µM | SR > 100 µM

CC(=O)O[C@H]1CC[C@@]2(C)C(=CC[C@@H]3[C@@H]2CC[C@]2(C)NC(=O)/C(=C\c4ccccc4)C[C@@H]32)C1
inactive: MDA-N 19.6 µM | HCT-116 15.6 µM | SF-268 19.6 µM | SK-MEL-28 16.8 µM | SN12C 18.7 µM | SW-620 20.2 µM | DU-145 15.9 µM | PC-3 18.4 µM | MOLT-4 > 100 µM | 786-0 17.6 µM | RXF 393 13 µM | MCF7 14.9 µM | SK-MEL-2 20.4 µM | MDA-MB-435 14.8 µM | IGROV-1 21.4 µM | M14 16.1 µM | NCI-H460 26.9 µM | LOX IMVI 17 µM | SR 55 µM

NC(=O)N/N=C1\C[C@H]2CCCC[C@H]2C1
inactive: MDA-N > 100 µM | HCT-116 > 100 µM | SF-268 > 100 µM | SK-MEL-28 > 100 µM | SN12C > 100 µM | SW-620 > 100 µM | DU-145 > 100 µM | PC-3 > 100 µM | MOLT-4 > 100 µM | 786-0 > 100 µM | MCF7 > 100 µM | SK-MEL-2 > 100 µM | MDA-MB-435 > 100 µM | IGROV-1 > 100 µM | M14 > 100 µM | NCI-H460 > 100 µM | LOX IMVI > 100 µM | SR > 100 µM | HOP-92 > 100 µM

COc1ccc(N2C(=O)C3c4[nH]c5c(C)cccc5c4C4CCC(c5ccccc5)CC4C3C2=O)cc1 (stereo not given)
inactive: MDA-N 13.5 µM | HCT-116 13.4 µM | SF-268 6.65 µM | SK-MEL-28 12 µM | SN12C 16.2 µM | SW-620 9.23 µM | DU-145 11.7 µM | PC-3 12.1 µM | MOLT-4 3.4 µM | 786-0 3.9 µM | MCF7 6.28 µM | SK-MEL-2 24.2 µM | MDA-MB-435 12.3 µM | IGROV-1 13.7 µM | M14 11.9 µM | NCI-H460 5.68 µM | LOX IMVI 13.8 µM | HOP-92 15 µM

CNC(=O)c1ccccc1[S+]1c2cccc3cccc(c23)C(=O)N1C (stereo not given)
inactive: MDA-N > 100 µM | HCT-116 > 100 µM | SF-268 > 100 µM | SK-MEL-28 > 100 µM | SN12C > 100 µM | SW-620 > 100 µM | DU-145 > 100 µM | PC-3 > 100 µM | MOLT-4 > 100 µM | 786-0 > 100 µM | RXF 393 > 100 µM | MCF7 > 100 µM | SK-MEL-2 > 100 µM | MDA-MB-435 > 100 µM | IGROV-1 > 100 µM | M14 > 100 µM | LOX IMVI > 100 µM | HOP-92 > 100 µM

NC(Cc1ccc(S(=O)(=O)O)cc1)C(=O)NC(Cc1ccc(S(=O)(=O)O)cc1)C(=O)NC(Cc1ccc(S(=O)(=O)O)cc1)C(=O)NC(Cc1ccc(S(=O)(=O)O)cc1)C(=O)O (stereo not given)
inactive: MDA-N > 100 µM | HCT-116 > 100 µM | SF-268 > 100 µM | SK-MEL-28 > 100 µM | SN12C > 100 µM | SW-620 > 100 µM | DU-145 > 100 µM | PC-3 > 100 µM | MOLT-4 > 100 µM | 786-0 > 100 µM | RXF 393 > 100 µM | MCF7 46.1 µM | SK-MEL-2 > 100 µM | MDA-MB-435 > 100 µM | IGROV-1 > 100 µM | M14 > 100 µM | NCI-H460 > 100 µM | LOX IMVI > 100 µM
